The term IC50 denotes the concentration at which inhibition is half-maximal. High values mean a need for much substance, low ones inhibition by little substance.

Assay [1] has as its target Neuraminidase (Influenza A virus (A/Memphis/1/1971(H3N2)), UniProt P03471, E119V). Also noted: species or system Influenza A virus (A/Fukui/45/2004(H3N2)).
For assay [2] the target is unchanged. Set-up: species or system Influenza A virus (A/Fukui/45/2004(H3N2)). This is another data set of the same source.

Turning to `CC(=O)N[C@@H]1[C@@H](O)[C@@H](F)[C@](F)(C(=O)O)O[C@H]1[C@H](O)CCO`, the IC50 amounted to 25.1 µM in assay [1] and 4.4 µM in assay [2].

For `CC(=O)N[C@@H]1C[C@@H](F)[C@](F)(C(=O)O)O[C@H]1[C@H](O)[C@H](O)CO`, the IC50 in assay [1] is 3.71 µM; in assay [2], 3.67 µM.

Values taken from ChEMBL document CHEMBL4118102 (J Med Chem, 2018).
